Measurements as given in patent US20250228775A1, “ETHANOLIC RESINIFERATOXIN CONCENTRATE” (Gruenenthal GmbH, priority 2024, published 2025).

Legend:
[1] = tested on: chronic osteoarthritic knee joint pain; test: Randomized, double-blind, placebo-controlled, single-dose trial of intraarticular Resiniferatoxin (Example 3); type: in vivo, human; details: for subjects with severe adverse events: none considered related to investigational medicinal product or Ropivacaine
Method: The primary objective of this study was to compare the analgesic effects of single intraarticular injections of Resiniferatoxin (100 or 400 ng) compared to placebo, at 3 and 6 months postinjection, in participants with chronic osteoarthritic knee joint pain. Secondary objectives were to evaluate the analgesic effects of Resiniferatoxin versus placebo in terms of a responder analysis (percentage of subjects achieving ≥50% or ≥70% reduction in visual analog scale pain score) and changes in Western Ontario and McMaster Universities Arthritis Index (WOMAC) total and subscale scores (pain, physical function and stiffness). Safety and injection site pain were also evaluated.
The study was conducted as a randomized, double-blind, placebo-controlled, single-dose trial of Resiniferatoxin. Eligible patients were aged 40 to 80 years with radiographic knee osteoarthritis (Kellgren-Lawrence Grade 2-4 in the last 3 years) and a baseline visual analog scale (0-100 mm) pain score ≥40 mm on motion in the target knee, with or without pain medication. 67 subjects were randomized to treatment with either Resiniferatoxin 100 ng (n=24) or 400 ng (n=23), or placebo (n=20), administered intraarticularly into the index knee. Intraarticular Ropivacaine (5 ml, 0.5%) was administered 15 mins before investigational medicinal product. Visual analog scale scores were used to evaluate pain on motion as the average of the last 2 days in a target knee between baseline and at 3 and 6 months post injection. Injection site pain was rated (visual analog scale) from baseline (−0.5 h) up to 3 h post intraarticular injections.

[2] = tested on: moderate to severe pain due to osteoarthritis of the knee; details: one-time intraarticular dose 5 to 30 μg; cited from earlier work
[3] = single intraarticular dose 100 ng or 400 ng

C=C(C)[C@]12C[C@@H](C)[C@@]34O[C@](Cc5ccccc5)(O[C@@H]1[C@@H]3C=C(COC(=O)Cc1ccc(O)c(OC)c1)C[C@]1(O)C(=O)C(C)=C[C@@H]41)O2 [Resiniferatoxin, 4-hydroxy-3-methoxy-benzeneacetic acid, [(2S,3aR,3bS,6aR,9aR,9bR, 10R,11aR)-3a,3b,6,6a,9a,10,11,11a-octahydro-6a-hydroxy-8,10-dimethyl-11a-(1-methylethenyl)-7-oxo-2-(phenylmethyl)-7H-2,9b-epoxyazuleno[5,4-e]-1,3-benzodioxol-5-yl]methyl ester]
reduction in WOMAC total and subscale scores (pain, physical function and stiffness) compared to placebo ([1]; 100 ng and 400 ng, at both 3 and 6 months): greater reduction in WOMAC total and subscale scores | subjects with severe adverse events ([1]; 100 ng group (n=24)): 2 subjects | pain reduction (VAS pain on motion) compared to placebo ([1]; 100 ng or 400 ng intraarticular): greater pain reduction than subjects receiving placebo | injection site pain (procedural pain) compared to placebo ([1]; 100 ng or 400 ng intraarticular, VAS up to 3 h post injection): generally higher | subjects with severe adverse events ([1]; 400 ng group (n=23)): 3 subjects | first visit at which reduction in VAS pain on motion was observed ([1]; intention-to-treat population, first trial visit post-injection): ≤ 8 days | last visit until which reduction in VAS pain on motion lasted ([1]; intention-to-treat population, last trial visit): ≥ 6 month | time of return of injection site pain to baseline ([1]; post-injection): ≤ 3 h | analgesic onset [1, 3]: within one week of administration | duration of analgesia during follow-up [1, 3]: at least 3 months | safety and tolerability [1, 3]: good safety profile and to have been well tolerated | efficacy [2]: Preliminary efficacy was also observed
